In one data set the target is T1, iPLA2epsilon (Homo sapiens, UniProt Q9NST1, K434E).
T1 construct: used as a template for PCR to obtain full-length CDNA for iPLA2epsilon; made in house; host or cells: Sf9 insect cells (baculovirus)
T1 sequence (Q9NST1 with tags, fused parts or gaps K434E): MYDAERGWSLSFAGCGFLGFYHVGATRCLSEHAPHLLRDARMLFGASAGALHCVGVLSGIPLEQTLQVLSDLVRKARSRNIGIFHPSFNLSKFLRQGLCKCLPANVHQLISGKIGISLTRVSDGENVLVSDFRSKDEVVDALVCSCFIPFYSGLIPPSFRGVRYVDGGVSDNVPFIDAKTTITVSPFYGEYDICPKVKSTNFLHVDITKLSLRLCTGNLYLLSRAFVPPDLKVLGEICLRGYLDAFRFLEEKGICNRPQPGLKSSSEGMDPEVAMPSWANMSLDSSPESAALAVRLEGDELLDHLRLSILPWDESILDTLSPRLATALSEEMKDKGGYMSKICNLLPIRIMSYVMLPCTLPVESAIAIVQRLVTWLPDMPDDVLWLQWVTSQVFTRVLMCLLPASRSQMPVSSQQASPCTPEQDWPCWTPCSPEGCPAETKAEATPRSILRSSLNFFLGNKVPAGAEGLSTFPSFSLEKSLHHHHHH
Nature of the data set: Triolein lipase activity inhibition by BEL. In kind it is biochemical. The following applies: pre-incubated with 0.1-2 microM BEL prior to substrate. As to the method: (§1) Assay for Triolein Lipase Activity—Sample fractions were incubated in 85 mM potassium phosphate, pH 7.0 containing 2 mM EDTA and 2 mM DTT for 15 min at 37° C. in the presence of a suspension of 100 microM [9,10-^3H(N)]-triolein (100 microCi/micromol) in 25 microM egg yolk lecithin, and 100 microM sodium taurocholate. In some reactions, BEL was added at the indicated concentrations and incubated with enzyme at room temperature for 3 min prior to the addition of radiolabeled substrate. After extraction of radiolabeled reaction products and remaining substrate into butanol, samples were spotted on TLC plates, overlaid with oleic acid standard, dried, and developed in chloroformlmethanol/NH4OH (65:25:5). The region of the plate corresponding to the oleic acid standard (visualized by iodine staining) was scraped into scintillation vials and quantified by liquid scintillation spectrometry.
(§2) To determine whether the three new iPLA2 family members were inhibitable by BEL, each enzyme was pre-incubated with 0.1-2 microM BEL or ethanol vehicle alone prior to measuring triolein lipase activity (FIG. 5). […] Considering the hydrophobic nature of the acyl-glycerol substrates of iPLA2epsilon, iPLA2zeta, and iPLA2eta identified herein, it is not surprising that BEL would have access to the active sites of these enzymes.

The target in another data set is T2, iPLA2eta (Homo sapiens, UniProt P41247).
T2 construct: Full-length human iPLA2zeta (TTS-2.2) and iPLA2eta (GS2) were amplified by PCR; made in house; host or cells: Sf9 insect cells (baculovirus)
T2 sequence (P41247 1-253): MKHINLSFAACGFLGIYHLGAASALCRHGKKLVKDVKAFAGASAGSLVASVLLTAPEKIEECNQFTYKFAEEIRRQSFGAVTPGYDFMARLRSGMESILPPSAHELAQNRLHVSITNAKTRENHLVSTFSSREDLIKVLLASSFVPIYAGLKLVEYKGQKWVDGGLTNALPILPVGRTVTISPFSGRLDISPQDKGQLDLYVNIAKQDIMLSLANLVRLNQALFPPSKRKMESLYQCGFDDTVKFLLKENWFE
The data set can be described thus: Triolein lipase activity inhibition by BEL. In kind it is biochemical. The following applies: pre-incubated with 0.1-2 microM BEL prior to substrate. As to the method:
as §1, §2

The target in another data set is T3, iPLA2zeta (Homo sapiens, UniProt Q96AD5, L481P).
T3 construct: Full-length human iPLA2zeta (TTS-2.2) and iPLA2eta (GS2) were amplified by PCR; made in house; host or cells: Sf9 insect cells (baculovirus)
T3 sequence (Q96AD5 with tags, fused parts or gaps L481P): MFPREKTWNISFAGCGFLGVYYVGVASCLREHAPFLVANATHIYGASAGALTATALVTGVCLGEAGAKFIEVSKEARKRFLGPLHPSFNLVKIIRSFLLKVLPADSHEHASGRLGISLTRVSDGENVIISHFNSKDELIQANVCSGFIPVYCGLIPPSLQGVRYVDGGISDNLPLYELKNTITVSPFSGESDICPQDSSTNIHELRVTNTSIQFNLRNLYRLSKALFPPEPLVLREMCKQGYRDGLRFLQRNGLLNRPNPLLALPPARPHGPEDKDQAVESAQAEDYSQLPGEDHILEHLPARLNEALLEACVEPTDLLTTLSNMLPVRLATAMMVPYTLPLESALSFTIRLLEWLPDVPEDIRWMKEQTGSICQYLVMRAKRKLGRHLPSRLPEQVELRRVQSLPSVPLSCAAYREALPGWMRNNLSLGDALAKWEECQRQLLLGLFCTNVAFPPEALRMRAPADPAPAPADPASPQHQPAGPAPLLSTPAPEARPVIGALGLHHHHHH
Nature of the data set: Triolein lipase activity inhibition by BEL. In kind it is biochemical. The following applies: pre-incubated with 0.1-2 microM BEL prior to substrate. As to the method: as §1, §2

In data set [1] the target is iPLA2epsilon, iPLA2zeta, and iPLA2eta. The data set can be described thus: Triglyceride lipase activity inhibition, summary over the three isoforms. In kind it is biochemical, human. The following applies: range over iPLA2epsilon, zeta, eta; read-out: IC50, triglyceride lipase activity of each of the three isoforms. As for the experimental part:
as §1

The target of the next data set is T4, iPLA2beta (Homo sapiens, UniProt O60733).
T4 sequence (O60733 1-806): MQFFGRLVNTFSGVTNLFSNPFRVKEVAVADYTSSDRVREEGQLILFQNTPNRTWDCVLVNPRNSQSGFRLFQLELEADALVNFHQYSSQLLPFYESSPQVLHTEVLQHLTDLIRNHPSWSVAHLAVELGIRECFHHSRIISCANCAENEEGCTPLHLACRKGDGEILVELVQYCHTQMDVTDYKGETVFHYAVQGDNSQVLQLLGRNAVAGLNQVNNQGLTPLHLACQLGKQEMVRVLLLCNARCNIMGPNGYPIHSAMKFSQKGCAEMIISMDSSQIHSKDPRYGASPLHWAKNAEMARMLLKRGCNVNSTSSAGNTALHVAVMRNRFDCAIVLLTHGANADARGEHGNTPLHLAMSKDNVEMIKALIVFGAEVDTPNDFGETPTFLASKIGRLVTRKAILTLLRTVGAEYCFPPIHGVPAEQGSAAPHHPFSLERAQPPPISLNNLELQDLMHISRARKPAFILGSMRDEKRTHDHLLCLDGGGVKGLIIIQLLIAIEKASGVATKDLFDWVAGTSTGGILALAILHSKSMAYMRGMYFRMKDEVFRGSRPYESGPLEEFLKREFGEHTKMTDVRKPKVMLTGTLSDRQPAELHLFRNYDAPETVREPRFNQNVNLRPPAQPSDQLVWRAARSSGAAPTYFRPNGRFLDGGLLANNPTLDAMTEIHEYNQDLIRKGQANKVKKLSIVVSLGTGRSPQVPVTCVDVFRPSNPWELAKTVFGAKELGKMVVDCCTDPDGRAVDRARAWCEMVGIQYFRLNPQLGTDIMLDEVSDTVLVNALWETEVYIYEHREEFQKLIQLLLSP
The following applies: previously demonstrated (refs 37-39); cited from earlier work.

The next data set concerns the target T5, iPLA2gamma (Homo sapiens, UniProt Q9NP80).
T5 sequence (Q9NP80 1-782): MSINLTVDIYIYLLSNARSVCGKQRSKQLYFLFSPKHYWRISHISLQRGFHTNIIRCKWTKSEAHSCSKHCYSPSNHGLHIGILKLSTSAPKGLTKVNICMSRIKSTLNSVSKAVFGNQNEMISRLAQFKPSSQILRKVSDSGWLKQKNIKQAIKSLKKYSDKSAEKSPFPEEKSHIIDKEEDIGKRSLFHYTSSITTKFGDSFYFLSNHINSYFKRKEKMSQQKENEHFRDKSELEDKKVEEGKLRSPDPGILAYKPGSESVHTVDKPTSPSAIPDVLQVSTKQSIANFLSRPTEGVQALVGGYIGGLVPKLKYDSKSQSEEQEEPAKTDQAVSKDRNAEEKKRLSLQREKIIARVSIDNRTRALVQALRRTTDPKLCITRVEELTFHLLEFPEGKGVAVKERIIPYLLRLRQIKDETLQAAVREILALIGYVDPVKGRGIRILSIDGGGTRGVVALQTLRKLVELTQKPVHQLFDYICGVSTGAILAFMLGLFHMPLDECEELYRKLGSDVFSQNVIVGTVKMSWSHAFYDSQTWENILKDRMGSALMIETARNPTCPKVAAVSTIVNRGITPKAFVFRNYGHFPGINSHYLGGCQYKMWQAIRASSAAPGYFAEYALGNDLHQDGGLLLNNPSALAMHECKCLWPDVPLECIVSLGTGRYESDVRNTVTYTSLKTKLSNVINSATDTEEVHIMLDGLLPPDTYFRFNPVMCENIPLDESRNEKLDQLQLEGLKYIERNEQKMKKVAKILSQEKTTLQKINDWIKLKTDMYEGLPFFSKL
The following applies: previously demonstrated (refs 37-39); cited from earlier work.

Data set [2] in a line: Assay for triolein lipase activity of recombinant enzymes. In kind it is biochemical. As for the experimental part:
as §1

Data set [3] can be described thus: Assay for calcium-independent phospholipase A2 activity of recombinant enzymes. In kind it is biochemical. The following applies: for PLA2 hydrolysis rate: affinity purified, 30 min. From the text:
[…] Reactions were terminated by addition of 100 microliters of butanol and extraction of the radiolabeled product and remaining substrate into the butanol layer by vigorous vortexing. Samples were spotted on LK6 Silica Gel 60 Å TLC plates, overlaid with oleic acid standard, dried, and developed in petroleum etherlethyl etherlacetic acid (70:30:1). The region of the plate corresponding to the oleic acid standard (visualized by iodine staining) was scraped into scintillation vials and quantified by liquid scintillation spectrometry.

A short description of data set [4]: Assay for acylglycerol transacylase activity. In kind it is biochemical. As to conditions: affinity purified. As to the method:
Assay for Acylglycerol Transacylase Activity—Highly purified CO^2+-TALON affinity chromatographic fractions containing iPLA2epsilon(His)6 (6xHis tag disclosed as SEQ ID NO: 29), iPLA2zeta(His)6 (6xHis tag disclosed as SEQ ID NO: 29) or iPLA2eta(His)6 (6xHis tag disclosed as SEQ ID NO: 29) (40 microliters) were incubated in 85 mM potassium phosphate, pH 7.0 (200 microliters final volume) for 15 mm at 37° C. in the presence of 10 microM [1-^14-C]-mono-olein (acyl donor), 25 microM acyl acceptor (mono-olein or diolein), 25 microM egg yolk lecithin, and 25 microM sodium taurocholate. After extraction of radiolabeled reaction products and remaining substrate into butanol, samples were spotted on TLC plates, overlaid with trileiddiolein standards, dried, and developed in petroleum etherlethyl etherlacetic acid (75:25:1). The regions of the plate corresponding to either the diolein, triolein, and fatty acid standards (visualized by iodine staining) were scraped into scintillation vials and quantified by liquid scintillation spectrometry.

We go through 2 molecules from patent US7473541B2, “Identification, cloning, expression, and purification of three novel human calcium-independent phospholipase A2 family members possessing triacylglycerol lipase and acylglycerol transacylase activities” (priority 2004, dated 2009).

“Also recorded” adds a separate entry of the source.

As a reminder, the IC50 is the concentration at which inhibition is half-maximal. For `O=C1O/C(=C/Br)CCC1c1cccc2ccccc12` (stereo not drawn) [BEL, (E)-6-(bromomethylene)-3-(1-naphthalenyl)-2H-tetrahydropyran-2-one], the 50% inhibitory concentration (IC50) against iPLA2epsilon was approximately 100 nM; on iPLA2eta, approximately 100 nM; against iPLA2zeta, approximately 500 nM; in data set [1], 100 to 500 nM. The “inhibition of iPLA2beta activity” value on iPLA2beta was “sub to low micromolar concentrations”. Moreover, the “inhibition of iPLA2gamma activity” value at iPLA2gamma is given as “sub to low micromolar concentrations”.

B1: iPLA2eta(His)6: recombinant human calcium-independent phospholipase A2 eta (GS2, SEQ ID NO: 3) expressed in Sf9 cells (protein, listed as Homo sapiens)
chain: MKHINLSFAACGFLGIYHLGAASALCRHGKKLVKDVKAFAGASAGFTSLVASVLLTAPEKIEECNQFTYKFAEEIRRQSFGAVTPGYDFMARLRSGMESILPPSAHFTELAQNRLHVSITNAKTRENHLVSTFSSREDLIKVLLASSFVPIYAGLKLVEYKGQKWVDFTGGLTNALPILPVGRTVTISPFSGRLDISPQDKGQLDLYVNIAKQDIMLSLANLVRLNQAFTLFPPSKRKMESLYQCGFDDTVKFLLKENWFEHHHHHH
modifications: C-terminal His6 tag
As for B1, the “triolein lipase specific activity relative to iPLA2epsilon(His)6 and iPLA2zeta(His)6” value in data set [2] (Sf9 fractions, normalised to immunoreactive protein) was 5-10 fold. In data set [2] (peak fractions from Co2+ TALON affinity column), the “triolein lipase specific activity” value is 52 nmol oleic acid·min^−1·mg^−1 protein. Moreover, the “calcium-independent PLA2 activity” value in [3] (Sf9 cytosol and membrane fractions, 1-palmitoyl-2-[1-14C]-oleoyl-sn-glycerol-3-phosphocholine, relative to control) was “did not yield detectable amounts; also recorded: did not display measurable iPLA2 activity”. Also, the PLA2 hydrolysis rate in data set [3] (1-palmitoyl-2-[1-14C]-arachidonyl-sn-glycerol-3-phosphocholine) is reported as 134±42 pmol arachidonic acid·min^31 1·mg protein^−1; in data set [3] (1-palmitoyl-2-[1-14C]-linoleoyl-sn-glycerol-3-phosphocholine), 77±23 pmol linoleic acid·min^−1·mg protein^−1. Also, the “transacylation specific activity relative to iPLA2epsilon(His)6 and iPLA2zeta(His)6” value in data set [4] is “approximately 10 fold”.
